In US20170216399A1, “COMPOSITIONS, METHODS AND USES FOR PROTECTING WHITE BLOOD CELLS FROM SUPPRESSION OR DEATH” (LOS ANGELES BIOMEDICAL RESEARCH INSTITUTE AT HARBO-UCLA …, priority 2014, published 2017):
Marks after values point to notes of the source that are not given here. Ends that are not written are not given here.

Assays:
cells = settings: HN mutant compared with HN; cited from earlier work
[1] = test system: murine B16 melanoma cells; assay: Lung melanoma metastases in B16 tumor-bearing mice; assay type: in vivo, mouse; settings: treatment alone vs non-treated tumor-bearing mice
Excerpt: In this study the tumor loading dose was 1×10^5 B16 cells per mouse to examine the effects of HNG on peripheral blood leucocytes, plasma IGF-1 and IGFBP-1 levels while confirming its additive or synergistic effect on CP-induced suppression of lung melanoma metastases. Twenty-five young adult (12-week-old) male mice (C57BL/6J) were used for this experiment in which 5 mice were used as control and 20 mice of each were intravenously inoculated via the tail vein with 1×10^5 murine B16 melanoma cells. 20 tumor-bearing mice were randomly divided into 4 groups with 5 mice in each group received 1) no treatment; 2) HNG alone; 3) CP alone; and 4) a combination treatment with the doses and duration described above.

white blood cells [2] = assay type: in vivo
Procedure: (§1) Body weight (BW) was recorded at autopsy.
The effect of a potent HN analog HNG (HN-S14G) (5mg/KG/day, IP) with and without concomitant cyclophosphamide (CP, 200 mg IP) treatment was administered to 4 adult healthy mice in each group. Another four mice served as controls. Two days after treatment, the animals were killed and their peripheral blood cells were collected and the blood cell counts were assessed by a blood cell counter.

peripheral leucocytes = assay: Peripheral leucocytes among treatment groups of healthy mice (Table 7); assay type: in vivo, mouse; settings: mean ± SEM
Procedure: as §1

[3] = test system: red blood cell or platelet; assay: Red blood cell and platelet counts in B16 tumor-bearing mice
Procedure: (§2) Mice were injected with heparin (1300 IU/kg BW, ip) 15 min before sacrifice by sodium pentobarbital (200 mg/kg BW IP). Body weight (BW) was recorded at autopsy. Blood samples were collected from the right ventricle of each mouse immediately after death and used for complete blood count using an automated cell counter (VetScanHM2, ABAXIS, Union City, Calif.). Plasma was separated and stored at −20° C. for subsequent HNG, IGF-1 and IGFBP-1 measurements by specific and sensitive ELISA assays as previously described (Chin et al., Endocrinology. 2013; 154:3739-44; Hwang et al, Growth Horm IGF Res 2008; 18: 65-74).
(§3) Twenty-five young adult (12-week-old) male mice (C57BL/6J) were used for this experiment in which 5 mice were used as control and 20 mice of each were intravenously inoculated via the tail vein with 1×10^5 murine B16 melanoma cells. 20 tumor-bearing mice were randomly divided into 4 groups with 5 mice in each group received 1) no treatment; 2) HNG alone; 3) CP alone; and 4) a combination treatment with the doses and duration described above.

IGFBP-1 = assay: Plasma IGFBP-1 levels among groups in healthy mice (Table 6); assay type: in vivo, mouse; settings: mean ± SEM
Procedure: as §1

IGF-1 [4] = assay: Plasma IGF-1 levels among groups in healthy mice (Table 6); assay type: in vivo, mouse; settings: mean ± SEM
Procedure: as §1

white blood cells [5] = assay type: in vivo; settings: CP 200 mg IP single dose, melanoma-bearing mice (FIG. 2)
Procedure: The effect of a potent HN analog HNG (HN-S14G) with or without cyclophosphamide (CP) in a mouse melanoma with lung metastasis model was studied. Five mice were used as control (Con) and 40 mice were inoculated intravenously with B16 murine melanoma cells. Of these mice five received no further treatment (NT). A week later the remaining 35 mice (n=5 per group) were treated for additional 2 weeks with: • 1) HNG 0.05 mg/KG body weight (BW) daily IP injection for 2 weeks; • 2) HNG 0.5 mg mg/Kg BW daily IP injection for 2 weeks; • 3) HNG 5 mg/Kg BW daily IP injection for 2 weeks; • 4) a single CP (200 mg IP single dose) injection+HNG 0.05 mg/KG body weight (BW) daily IP injection for 2 weeks; • 5) a single CP (200 mg IP single dose) injection+HNG 0.5 mg mg/Kg BW daily IP injection for 2 weeks; • 6) a single CP (200 mg IP single dose) injection HNG 0.5 mg mg/Kg BW daily IP injection for 2 weeks; • 7) a single CP (200 mg IP single dose) injection+HNG 5 mg mg/Kg BW daily IP injection.
All mice were sacrificed three weeks after tumor inoculation and two weeks after CP/HNG treatment. Blood was obtained for the measurement of white blood cell (WBC) count by a Coulter Counter.

[6] = test system: peripheral blood leucocytes
Procedure: as §2, §3

germ cells = settings: cited from earlier work
IGF-1 [7] = assay: Plasma IGF-1 levels (ELISA) in B16 tumor-bearing mice; assay type: in vivo, mouse; settings: treatment alone, tumor-bearing mice (FIG. 3B)
Procedure: as §2, §3

[8] = mouse, in vivo
Procedure: as §2, §3

[9] = mouse, in vivo; remark: listed apart in the source
[10] = during in vivo treatment with CP (Drumond, et al., 2011)

HN-C8A: Cys8 to Ala; MAPRGFSALLLLTSEIDLPVKRRA (SEQ ID NO: 42)
Cytoprotective Action (cells): Not effective, prevents

O=P1(N(CCCl)CCCl)NCCCO1 (stereo not shown) [CP, cyclophosphamide monohydrate]
number of metastatic tumors in the lungs [1]: significantly decreased | granulocyte count in the blood, of baseline value (white blood cells [2]; CP 200 mg IP alone, two days after CP treatment (FIG. 1B)): about 25% | WBC, fraction of the baseline counts (white blood cells [2]; CP 200 mg IP alone, two days after treatment (FIG. 1A)): about ⅕ | Granulocytes (10^6/ml) (peripheral leucocytes): 0.2 ± 0.02^b 10^6/ml | Lymphocytes (10^6/ml) (peripheral leucocytes): 0.07 ± 0.01^b 10^6/ml | Monocytes (10^6/ml) (peripheral leucocytes): 0.01 ± 0.01^b 10^6/ml | Total WBC (10^6/ml) (peripheral leucocytes): 0.3 ± 0.02^b 10^6/ml | platelet counts [3]: no significant decreases | red blood cell counts [3]: no significant decreases | IGFBP-1 (ng/ml) (IGFBP-1): 7.4 ± 1.3^b ng/ml | IGF-1 (ng/ml) (IGF-1 [4]): 182.4 ± 10.5^c ng/ml | WBC count, fraction of control values (white blood cells [5]): about ⅓ | number of white blood cells ([6]; CP alone vs non-treated tumor-bearing mice (FIG. 4A)): significantly suppressed | granulocytes ([6]; CP alone vs non-treated tumor-bearing mice (FIG. 4B)): significantly suppressed | monocytes ([6]; CP alone vs non-treated tumor-bearing mice (FIG. 4C)): significantly suppressed | lymphocytes ([6]; CP alone vs non-treated tumor-bearing mice (FIG. 4D)): significantly suppressed | differentiated germ cells of mice (germ cells; [10]): eliminated | undifferentiated germ cells remained (germ cells; [10]): about half | germ cells regenerated from undifferentiated stem cells (germ cells; once CP treatment was stopped (Drumond, et al., 2011)): about 64% | plasma IGF-1 levels (IGF-1 [7]): significantly suppressed

HN-F6A: MAPRGASCLLLLTSEIDLPVKRRA (SEQ ID NO: 22); Phe6 to Ala
Cytoprotective Action (cells): Similar/more effective

HN-S7A: MAPRGFACLLLLTSEIDLPVKRRA (SEQ ID NO: 24); Ser7 to Ala
Cytoprotective Action (cells): Not effective, prevents

MAPRGFSCLLLLTGEIDLPVKRRA [HNG]
plasma HNG levels [8]: increased | HNG (ng/ml) [9]: 80.8 ± 7.8^b ng/ml

HN-C8P: MAPRGFSPLLLLTSEIDLPVKRRA (SEQ ID NO: 25); Cys8 to Pro
Cytoprotective Action (cells): Not effective, blocks

HN-L12A: HN mutant, Leu12 to Ala (MAPRGFSCLLLATSEIDLPVKRRA; Humanin; UniProt Q8IVG9 1-24, looked up, variant L12A)
Cytoprotective Action (cells): HN antagonist, forms

HN: MAPRGFSCLLLLTSEIDLPVKRRA (SEQ ID NO: 1); 24-amino acid mitochondrial derived peptide
total number of white blood cells (WBC) (white blood cells [2]; HNG 5mg/KG/day IP alone, adult healthy mice, two days after treatment, vs controls (FIG. 1A)): increased slightly but significantly
